# Reference: ChEMBL document CHEMBL1149568, “Design, synthesis, and molecular modeling studies of 5'-deoxy-5'-ureidoadenosine: 5'-ureido group as multiple hydrogen bonding donor in the active site of S-adenosylhomocysteine hydrolase” (Bioorg Med Chem Lett, 2007)
# Molecular target: Adenosylhomocysteinase (Homo sapiens, UniProt P23526)
# Assay: Inhibition of human recombinant placental SAH
# Adenosylhomocysteinase, sequence (P23526 whole entry): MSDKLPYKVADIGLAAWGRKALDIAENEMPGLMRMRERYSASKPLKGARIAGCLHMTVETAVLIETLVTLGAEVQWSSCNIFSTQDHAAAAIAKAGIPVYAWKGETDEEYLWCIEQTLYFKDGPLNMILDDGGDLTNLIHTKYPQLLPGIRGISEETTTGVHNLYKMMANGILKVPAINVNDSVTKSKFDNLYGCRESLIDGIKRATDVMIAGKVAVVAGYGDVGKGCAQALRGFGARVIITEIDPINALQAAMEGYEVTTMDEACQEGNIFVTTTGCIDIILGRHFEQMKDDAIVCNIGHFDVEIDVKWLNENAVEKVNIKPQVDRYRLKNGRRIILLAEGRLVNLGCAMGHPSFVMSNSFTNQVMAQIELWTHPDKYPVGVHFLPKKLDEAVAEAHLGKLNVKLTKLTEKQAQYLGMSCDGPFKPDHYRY
row,SMILES,IC50
1,NC(=O)NC[C@H]1O[C@@H](n2cnc3c(N)ncnc32)[C@H](O)[C@@H]1O,7.53 µM
2,[N-]=[N+]=NC[C@H]1O[C@@H](n2cnc3c(N)ncnc32)[C@H](O)[C@@H]1O,28.9 µM
3,NC[C@H]1O[C@@H](n2cnc3c(N)ncnc32)[C@H](O)[C@@H]1O,75 µM
